Values quoted from earlier work in US20260306436A1, “TRETINOIN LIPOSOME FORMULATIONS AND USES THEREOF TO TREAT CANCER” (Highfield BioPharmaceuticals Corporation, priority 2023, published 2026).

What was measured:
BSA = settings: stated for the release system with BSA
[1] = background statement
[2] = background statement; remark: listed apart in the source

For `CC1=C(/C=C/C(C)=C/C=C/C(C)=C/C(=O)O)C(C)(C)CCC1` [all-trans retinoic acid], the Protein binding rate (BSA) is given as 95%, the Water solubility [1] is given as “very low” and the Plasma half-life [2] is given as “short”.
